From ChEMBL document CHEMBL5223114, “Design, synthesis and biological evaluation of novel macrocyclic derivatives bearing aniline pyrimidine scaffolds as EGFR-TKIs” (Bioorg Med Chem Lett, 2022)

What was measured:
[1] = target: Epidermal growth factor receptor (Homo sapiens, UniProt P00533, 746-750DEL/C797S/T790M); assay: Inhibition of EGFR d746-750/T790M/C797S triple mutant (unknown origin)
[2] = target: Epidermal growth factor receptor (Homo sapiens, UniProt P00533, 746-750DEL/T790M); assay: Inhibition of EGFR d746-750/T790M double mutant (unknown origin)
[3] = target: Epidermal growth factor receptor (Homo sapiens, UniProt P00533, L858R/T790M); assay: Inhibition of EGFR L858R/T790M double mutant (unknown origin)
BaF3 [4] = assay: Antiproliferative activity against mouse BaF3 cells harboring EGFR del19/T790M/C797S triple mutant assessed as inhibition of cell growth incubated for 72 hrs by CCK-8 assay; format: functional, cell-based; conditions: BaF3, 72 h
BaF3 [5] = assay: Antiproliferative activity against mouse BaF3 cells harboring EGFR del19/T790M double mutant assessed as inhibition of cell growth incubated for 72 hrs by CCK-8 assay; format: functional, cell-based; conditions: BaF3, 72 h

Epidermal growth factor receptor (Homo sapiens, UniProt P00533, 746-750DEL/T790M), sequence (P00533 whole entry, looked up, stated change not applied): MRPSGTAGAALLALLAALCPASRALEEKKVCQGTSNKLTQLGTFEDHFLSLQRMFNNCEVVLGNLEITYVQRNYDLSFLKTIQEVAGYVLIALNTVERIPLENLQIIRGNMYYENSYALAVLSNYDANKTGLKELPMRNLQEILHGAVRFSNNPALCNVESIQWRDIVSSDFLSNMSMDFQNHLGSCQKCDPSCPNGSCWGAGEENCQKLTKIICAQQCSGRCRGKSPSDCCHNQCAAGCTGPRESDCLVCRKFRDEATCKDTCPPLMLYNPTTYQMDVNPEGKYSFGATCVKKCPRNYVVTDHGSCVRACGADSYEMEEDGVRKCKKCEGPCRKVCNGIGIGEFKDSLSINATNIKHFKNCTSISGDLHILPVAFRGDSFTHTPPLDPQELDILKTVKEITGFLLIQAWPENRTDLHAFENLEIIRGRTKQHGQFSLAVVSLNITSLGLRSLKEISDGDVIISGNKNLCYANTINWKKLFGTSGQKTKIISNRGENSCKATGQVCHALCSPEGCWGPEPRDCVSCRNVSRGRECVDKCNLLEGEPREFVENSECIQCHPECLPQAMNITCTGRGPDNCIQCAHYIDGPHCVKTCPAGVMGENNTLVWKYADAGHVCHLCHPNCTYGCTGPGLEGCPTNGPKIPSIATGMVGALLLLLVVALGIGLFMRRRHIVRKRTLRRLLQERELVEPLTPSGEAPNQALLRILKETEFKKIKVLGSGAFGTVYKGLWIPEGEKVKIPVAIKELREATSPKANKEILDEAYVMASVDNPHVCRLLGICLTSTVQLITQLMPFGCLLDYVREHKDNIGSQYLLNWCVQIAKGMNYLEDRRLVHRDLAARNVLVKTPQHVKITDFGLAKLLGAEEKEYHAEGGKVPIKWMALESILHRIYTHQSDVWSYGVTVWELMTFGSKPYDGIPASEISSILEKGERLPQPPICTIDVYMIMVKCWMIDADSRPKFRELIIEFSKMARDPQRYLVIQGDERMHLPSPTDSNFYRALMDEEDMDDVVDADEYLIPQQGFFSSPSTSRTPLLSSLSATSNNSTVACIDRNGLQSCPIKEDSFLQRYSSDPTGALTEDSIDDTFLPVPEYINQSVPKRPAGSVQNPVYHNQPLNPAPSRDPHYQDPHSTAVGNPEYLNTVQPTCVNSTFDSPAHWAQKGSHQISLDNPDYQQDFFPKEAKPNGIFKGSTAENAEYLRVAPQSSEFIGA
Epidermal growth factor receptor (Homo sapiens, UniProt P00533, 746-750DEL/C797S/T790M), sequence (P00533 whole entry, looked up, stated change not applied): as above
Epidermal growth factor receptor (Homo sapiens, UniProt P00533, L858R/T790M), sequence (P00533 25-1210 T790M/L858R limits assumed): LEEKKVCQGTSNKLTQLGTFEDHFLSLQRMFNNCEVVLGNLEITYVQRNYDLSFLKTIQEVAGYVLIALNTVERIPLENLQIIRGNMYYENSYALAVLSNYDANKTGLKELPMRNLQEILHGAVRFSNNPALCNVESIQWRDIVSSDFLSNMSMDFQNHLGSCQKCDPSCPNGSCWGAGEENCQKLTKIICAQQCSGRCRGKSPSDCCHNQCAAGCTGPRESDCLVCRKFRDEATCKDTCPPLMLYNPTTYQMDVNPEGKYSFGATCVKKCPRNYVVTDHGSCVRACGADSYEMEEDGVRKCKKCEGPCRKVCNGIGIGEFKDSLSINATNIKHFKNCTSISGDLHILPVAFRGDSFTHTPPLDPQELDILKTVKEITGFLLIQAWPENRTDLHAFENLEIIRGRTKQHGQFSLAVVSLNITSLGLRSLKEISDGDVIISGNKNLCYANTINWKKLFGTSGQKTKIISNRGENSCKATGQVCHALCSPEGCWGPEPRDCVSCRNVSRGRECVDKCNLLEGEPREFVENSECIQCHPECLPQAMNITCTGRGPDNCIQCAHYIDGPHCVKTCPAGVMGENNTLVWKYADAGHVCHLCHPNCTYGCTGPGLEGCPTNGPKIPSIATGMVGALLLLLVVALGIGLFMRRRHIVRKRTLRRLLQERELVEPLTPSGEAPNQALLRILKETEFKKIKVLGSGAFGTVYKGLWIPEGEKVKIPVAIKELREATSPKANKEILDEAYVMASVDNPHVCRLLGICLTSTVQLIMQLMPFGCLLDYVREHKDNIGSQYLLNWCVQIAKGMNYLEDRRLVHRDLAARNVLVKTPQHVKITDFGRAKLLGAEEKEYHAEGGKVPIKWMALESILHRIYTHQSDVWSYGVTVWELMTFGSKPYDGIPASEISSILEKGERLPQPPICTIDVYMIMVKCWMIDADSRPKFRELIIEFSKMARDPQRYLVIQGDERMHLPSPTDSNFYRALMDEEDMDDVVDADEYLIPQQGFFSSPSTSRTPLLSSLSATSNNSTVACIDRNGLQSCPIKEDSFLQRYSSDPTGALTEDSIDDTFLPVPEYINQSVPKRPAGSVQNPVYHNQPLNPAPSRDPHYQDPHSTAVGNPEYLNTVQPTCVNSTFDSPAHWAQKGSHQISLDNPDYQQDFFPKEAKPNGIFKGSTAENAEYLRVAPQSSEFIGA

IC50 [1] | IC50 [2] | IC50 [3] | IC50 (BaF3 [4]) | IC50 (BaF3 [5]) | SMILES
> 100 nM | 2.96 nM | 25.7 nM | – | – | C=CC(=O)N1CCCCCCCn2cc(c3ccccc32)-c2ccnc(n2)Nc2cc1c(OCCCF)cc2F
– | – | – | 712 nM | 213 nM | C=CC(=O)N1CCCCCCCn2cc(c3ccccc32)-c2ccnc(n2)Nc2cc1ccc2F
> 100 nM | 13.2 nM | 25.2 nM | – | – | C=CC(=O)N1CCCCCCCCCn2cc(c3ccccc32)-c2ccnc(n2)Nc2cccc1c2
86.5 nM | 7.03 nM | 20.1 nM | – | – | C=CC(=O)N1CCCCCCCCn2cc(c3ccccc32)-c2ccnc(n2)Nc2cccc1c2
> 100 nM | 0.47 nM | 8.31 nM | 893 nM | 51 nM | C=CC(=O)N1CCCCCCn2cc(c3ccccc32)-c2ccnc(n2)Nc2cc1ccc2OC
55.3 nM | 0.55 nM | 3.45 nM | 811 nM | 218 nM | C=CC(=O)N1CCCCCCCn2cc(c3ccccc32)-c2ccnc(n2)Nc2cccc1c2
> 100 nM | 0.6 nM | 13.2 nM | 835 nM | 63 nM | C=CC(=O)N1CCCCCCn2cc(c3ccccc32)-c2ccnc(n2)Nc2cc1c(OCCCF)cc2F
> 100 nM | 0.22 nM | 6.49 nM | 695 nM | 35 nM | C=CC(=O)N1CCCCCCn2cc(c3ccccc32)-c2ccnc(n2)Nc2cc1ccc2F
> 100 nM | 0.65 nM | 10 nM | 867 nM | 148 nM | C=CC(=O)N1CCCCCCCn2cc(c3ccccc32)-c2ccnc(n2)Nc2cc1ccc2OC
– | – | – | 839 nM | 215 nM | C=CC(=O)N1CCCCCCn2cc(c3ccccc32)-c2ccnc(n2)Nc2cccc1c2

SMILES | IC50 [1] | IC50 [2] | IC50 [3] | IC50 (BaF3 [4]) | IC50 (BaF3 [5])
C=CC(=O)Nc1cc(Nc2nccc(-c3cn(C)c4ccccc34)n2)c(OC)cc1N(C)CCN(C)C [OSIMERTINIB] | – | – | – | 859 nM | 33 nM
